In US4080467A, “Pharmaceutical compositions comprising 1,3-dithiolan-2-ylidene malonate derivatives” (Nihon Nohyaku Co., Ltd., priority 1976, dated 1978):

How the values were obtained:
[1] = tested on: fatty liver (ethionine); experiment: Effect on fatty liver (ethionine model); type: in vivo, male mice (4 week-old, dd-strain); details: diet plus 0.2% ethionine and 0.2% compound, 5 days
Description: There are known many factors inducing fatty liver. But, the fatty liver is grouped into a couple of patterns from the mechanism of lipid accumulation or metabolism of lipoprotein in the liver. Ethionine is a typical compound inducing fatty liver. It inhibits RNA and protein syntheses and destructs polysome of the liver cell. Fatty liver is induced by the inhibition of protein synthesis and the disturbance of lipoprotein secretion.
Usually, fatty liver is closely related to the accumulation of triglyceride in the liver. In the present example, the degree of fatty liver and protective or therapeutic effect against the fatty liver was evaluted by measurement of triglyceride content in the liver.
The animals used in the test were 4 week-old male mice (dd-strain).
The mice were submitted for 5 days to a normal diet (control), to the normal diet plus 0.2% ethionine (positive control), to the normal diet plus 0.2% ethionine and 0.2% of the compound of this invention, or to the normal diet plus 0.2% ethionine and 0.2% methionine which was the referential diet. At the end of the period of 5 days, content of triglyceride in the liver was studied colorimetrically by chromotropic acid method and the result was represented as triolein content (mg/g-liver).

[2] = tested on: fatty liver (carbon tetrachloride); experiment: Therapeutic effect on fatty liver (carbon tetrachloride model); type: in vivo, male rat (35 week-old, SD strain); details: for Degree of fatty liver (histopathological examination): 10 days, one symbol per animal
Procedure: Carbon tetrachloride also induces fatty liver, but the picture of disease differs from the case of ethionine-induced fatty liver. Carbon tetrachloride is generally considered to damage microsome and thereby to inhibit protein synthesis and induce fatty liver.
Carbon tetrachloride was subscutaneously administered to 35 week-old male rat (SD strain) for 4 days at the dose of 1 ml/kg. The treated animals were left for 3 days after the last administration to maximize the manifestation of fatty liver.
Administration of the compounds of this invention was commenced on the fourth day after the administration of carbon tetrachloride was completed. It was orally given everyday for 10 days at the dose of 50 or 250 mg/kg. On the 11th day, the animals were sacrificed. The therapeutic effect was evaluated by determining the content of lipid in the liver (triglyceride and total lipid) and examining the histopathological changes. Triglyceride and total lipid were determined colorimetrically by chromotropic acid method and Bragdon's oxidation method, respectively.
Indices for the histopathological change is as follows.

[3] = tested on: cirrhosis (carbon tetrachloride); experiment: Therapeutic effect on cirrhosis (carbon tetrachloride); type: in vivo, male rat (4 week-old SD-strain); details: for Degree of cirrhosis (histopathological examination): 2000 ppm diet, one symbol per animal; for p-GOT activity / p-GPT activity: diet containing 2000 ppm
Procedure: The therapeutic effect of the compound of this invention on cirrhosis, which had been caused by carbon tetrachloride administration, was examined.
A 10% solution of carbon tetrachloride in olive oil was administered to the male rat (4 week-old SD-strain) intraperitoneally at the dose of 0.5 ml carbon tetrachloride/kg twice a week for a period of 10 weeks, to induce cirrhosis. Four days after the final administration of carbon tetrachloride, the formation of pseudo-lobulus was confirmed. Then the diseased animals were divided into two groups. Therapeutic group was submitted a diet containing 2000 ppm of Compound 4, while the positive control group was submitted a normal diet. Control group, to which olive oil alone had been administered, was submitted a normal diet.
At 1, 2, 4 and 8 weeks after beginning of Compound 4 feeding, 5 animals from each group were sacrificed, and the therapeutic effect on cirrhosis was evaluated by examining plasma transaminase activity (p-GPT and p-GOT, Reitman-Frankel method) and observing histopathological changes.
Degree of cirrhosis in the histopathological examination was graded as follows: […]

[4] = tested on: bile flow and biliary salt; experiment: Cholagogic action: bile flow and excretion of biliary salt; type: in vivo, male rat (4 week-aged, SD-JCL strain); details: 200 mg/kg oral; for bile flow / excretion of biliary salt: before treatment = 100
[5] = Acute oral toxicity to male mice (LD50); details: mouse, in vivo
[6] = 50 mg/kg oral everyday for 10 days
[7] = 250 mg/kg oral everyday for 10 days

In the case of `CC(C)OC(=O)C(C(=O)OC(C)C)=C1SCCS1` [Compound 4, Diisopropyl 1,3-dithiolan-2-yliden malonate], the “Triglyceride (content in the liver, as triolein)” value [1] is reported as 10.4 ± 1.6 mg/g, the Total lipid [2, 6] is reported as 107.6 ± 12.3 mg/g-liver and the Triglyceride [2, 6] is reported as 42.3 ± 6.3 mg/g-liver. The “Degree of fatty liver (histopathological examination)” value ([2]; 50 mg/kg oral) was “± ± and ± ± ± + ±”, the Total lipid [2, 7] was 72.3 ± 9.6 mg/g-liver and the Triglyceride [2, 7] was 23.6 ± 3.8 mg/g-liver. The “Degree of fatty liver (histopathological examination)” value ([2]; 250 mg/kg oral) was “- - ± ± - ±”, the “Degree of cirrhosis (histopathological examination)” value ([3]; 1 week) was “+ +++ + ++ +++” and the “Degree of cirrhosis (histopathological examination)” value ([3]; 2 weeks) was “++ ±”. For the same compound, the “Degree of cirrhosis (histopathological examination)” value ([3]; 8 weeks) was “+ ± and +++ ±”, the p-GOT activity ([3]; 1 week) was 277±135 Karmen unit and the p-GPT activity ([3]; 1 week) was 81.6±25.9 Karmen unit. It also gave a p-GOT activity ([3]; 2 weeks) of 96.8±2.6 Karmen unit, a p-GPT activity ([3]; 2 weeks) of 28.8±3.0 Karmen unit and a p-GOT activity ([3]; 4 weeks) of 64.0±5.5 Karmen unit. It also gave a p-GPT activity ([3]; 4 weeks) of 40.6±3.8 Karmen unit, a p-GOT activity ([3]; 8 weeks) of 91.8±7.2 Karmen unit and a p-GPT activity ([3]; 8 weeks) of 32.8±6.1 Karmen unit. For the same compound, the bile flow ([4]; 1 hour after treatment) was 110±4.2, the “excretion of biliary salt” value ([4]; 1 hour after treatment) was 105±13 and the bile flow ([4]; 2 hours after treatment) was 115±6.3. The “excretion of biliary salt” value ([4]; 2 hours after treatment) was 125±20, the bile flow ([4]; 3 hours after treatment) was 110±7.2 and the “excretion of biliary salt” value ([4]; 3 hours after treatment) was 132±26. For the same compound, the bile flow ([4]; 4 hours after treatment) was 112±8.5, the “excretion of biliary salt” value ([4]; 4 hours after treatment) was 115±23 and the bile flow ([4]; 5 hours after treatment) was 92±4.7. For the same compound, the “excretion of biliary salt” value ([4]; 5 hours after treatment) was 81±7.2, the “Amount of total biliary salts excreted for 5 hours relative to control” value ([4]; versus control) was 1.61 times and the “Quantity of total excreted bile for 5 hours relative to control” value ([4]; versus control) was 1.15 times. The LD50 [5] was 1350 mg/kg.
